Results as given in ChEMBL document CHEMBL6109103, “Dodecapeptides derived from human cathelicidin with potent activity against carbapenem-resistant Acinetobacter baumannii” (Eur J Med Chem, 2025).
pKd: −log10 of the molar value. Values after ≈ are worked out from the molar mass of the structure shown. Active and inactive are the calls of the source. The calls are words filed in the database; no cut-off is given here. Positions of bridges follow the written chain, without caps; N, C: chain ends. Non-standard residues stand in square brackets, D forms with d. Residues, ends and D or L forms follow the SMILES beside them. S5 = C=CCCC[C@](C)(N)C(=O)O

Tests used:
Acinetobacter baumannii [1] = assay: Antibacterial activity against carbapenem-resistant Acinetobacter baumannii clinical isolate 6 assessed as bacterial killing at 3.16 microg/ml measured within 10 mins relative to control; assay type: functional; settings: dose 3.16 µg/ml
Acinetobacter baumannii [2] = assay: Antibacterial activity against multidrug-resistant Acinetobacter baumannii assessed as inhibition of bacterial growth incubated for 24 hrs by broth dilution assay; assay type: functional
Staphylococcus aureus [3] = assay: Antibacterial activity against Staphylococcus aureus […] assessed as inhibition of bacterial growth incubated for 24 hrs by broth dilution assay; assay type: functional
HaCaT = assay: Cytotoxicity against human HaCaT cells assessed as cell death up to 100 microg/ml measured upto 24 hrs; assay type: toxicity, cell-based; settings: dose < 100 µg/ml
Acinetobacter baumannii [4] = assay: Antibacterial activity against carbapenem-resistant Acinetobacter baumannii clinical isolate 6 assessed as bacterial killing at 3.16 microg/ml measured for 1 hr in presence of NaCl; assay type: functional, organism-based; settings: dose 3.16 µg/ml
Acinetobacter baumannii [5] = assay: Antibacterial activity against Acinetobacter baumannii ATCC 19606 assessed as inhibition of bacterial growth incubated for 24 hrs by broth dilution assay; assay type: functional
Acinetobacter baumannii [6] = assay: Antibacterial activity against carbapenem-resistant Acinetobacter baumannii clinical isolate 3 assessed as inhibition of bacterial growth incubated for 24 hrs by broth dilution assay; assay type: functional
Acinetobacter baumannii [7] = assay: Antibacterial activity against carbapenem-resistant Acinetobacter baumannii clinical isolate 5 assessed as inhibition of bacterial growth incubated for 24 hrs by broth dilution assay; assay type: functional
Staphylococcus aureus [8] = assay: Antibacterial activity against Methicillin-resistant Staphylococcus aureus ATCC 43300 assessed as inhibition of bacterial growth incubated for 24 hrs by broth dilution assay; assay type: functional
Acinetobacter baumannii [9] = assay: Antibacterial activity against carbapenem-resistant Acinetobacter baumannii clinical isolate 6 assessed as inhibition of bacterial growth incubated for 24 hrs by broth dilution assay; assay type: functional
Acinetobacter baumannii [10] = assay: Antibacterial activity against carbapenem-resistant Acinetobacter baumannii clinical isolate 8 assessed as inhibition of bacterial growth incubated for 24 hrs by broth dilution assay; assay type: functional
Acinetobacter baumannii [11] = assay: Antibacterial activity against carbapenem-resistant Acinetobacter baumannii clinical isolate 1 assessed as inhibition of bacterial growth incubated for 24 hrs by broth dilution assay; assay type: functional
Lipoteichoic acid = assay: Binding affinity to […] bacterial Lipoteichoic acid assessed as dissociation constant by BLI analysis; design: species or system Bacteria
Acinetobacter baumannii [12] = assay: Antibacterial activity against carbapenem-resistant Acinetobacter baumannii clinical isolate 2 assessed as inhibition of bacterial growth incubated for 24 hrs by broth dilution assay; assay type: functional
Acinetobacter baumannii [13] = assay: Antibacterial activity against carbapenem-resistant Acinetobacter baumannii clinical isolate 4 assessed as inhibition of bacterial growth incubated for 24 hrs by broth dilution assay; assay type: functional
[14] = Binding affinity to gram negative bacterial lipid II assessed as dissociation constant by BLI analysis; design: species or system Bacteria
Acinetobacter baumannii [15] = assay: Antibacterial activity against carbapenem-resistant Acinetobacter baumannii clinical isolate 7 assessed as inhibition of bacterial growth incubated for 24 hrs by broth dilution assay; assay type: functional
[16] = Toxicity in BALB/c mouse assessed as liver damage at 64 mg/kg, ip measured for 3 days by H and E staining based analysis; assay type: organism-based; settings: in vivo, 72 h, time 3 day
[17] = Toxicity in BALB/c mouse assessed as animal survival at 1.25 mg/kg, NAS measured for 5 days; assay type: organism-based; settings: in vivo, inhaled or intranasal, time 5 day
[18] = Toxicity in BALB/c mouse assessed as heart damage at 64 mg/kg, ip measured for 3 days by H and E staining based analysis; assay type: organism-based; settings: in vivo, 72 h, time 3 day
Cell membrane [19] = assay: Induction of inner membrane permeabilization in carbapenem-resistant Acinetobacter baumannii clinical isolate 6 at 6.25 microg/ml measured for 1 hr by NPN-dye based assay; settings: dose 6.25 µg/ml
[20] = Toxicity in BALB/c mouse assessed as spleen damage at 64 mg/kg, ip measured for 3 days by H and E staining based analysis; assay type: organism-based; settings: in vivo, 72 h, time 3 day
Acinetobacter baumannii [21] = assay: Synergistic antibacterial activity against carbapenem-resistant Acinetobacter baumannii clinical isolate 6 in presence of tetracycline by microdilution checkerboard assay; assay type: functional, organism-based
[22] = Hemolytic activity at mouse RBC assessed as hemolysis; assay type: toxicity, cell-based, Erythrocyte; settings: mouse red blood cells, read-out: Activity
Acinetobacter baumannii [23] = assay: Antibacterial activity against carbapenem-resistant Acinetobacter baumannii clinical isolate 6 infected in BALB/c mouse assessed as survival rate at 1.25 mg/kg, NAS administered once a day for 3 days; assay type: functional; settings: 72 h, time 3 day
[24] = Toxicity in BALB/c mouse assessed as animal survival at 4 to 64 mg/kg, ip measured for 5 days; assay type: organism-based; settings: in vivo, 120 h, dose 4-64 mg/kg, time 5 day
Acinetobacter baumannii [25] = assay: Induction of morphological changes in carbapenem-resistant Acinetobacter baumannii at 6.25 microg/ml measured for 24 hrs by SEM analysis; assay type: functional, organism-based; settings: dose 6.25 µg/ml
[26] = Toxicity in BALB/c mouse assessed as kidney damage at 64 mg/kg, ip measured for 3 days by H and E staining based analysis; assay type: organism-based; settings: in vivo, 72 h, time 3 day
[27] = Toxicity in BALB/c mouse assessed as lung damage at 64 mg/kg, ip measured for 3 days by H and E staining based analysis; assay type: organism-based; settings: in vivo, 72 h, time 3 day
Acinetobacter baumannii [28] = assay: Antibacterial activity against carbapenem-resistant Acinetobacter baumannii clinical isolate 6 assessed as bacterial killing at 3.16 microg/ml measured for 10 to 30 mins in presence of mouse serum; assay type: functional, organism-based; settings: dose 3.16 µg/ml, time 10-30 min
proteinase K = assay: Proteolytic stability assessed as proteinase K (unknown origin)-mediated drug degradation measured for 20 mins by LC-MS analysis; assay type: ADME, Homo sapiens; settings: read-out: Drug degradation
Escherichia coli = assay: Antibacterial activity against human Escherichia coli assessed as inhibition of bacterial growth; assay type: functional, organism-based
Pseudomonas aeruginosa = assay: Antibacterial activity against human Pseudomonas aeruginosa assessed as inhibition of bacterial growth; assay type: functional, organism-based
Cell membrane [29] = assay: Induction of outer membrane permeabilization in carbapenem-resistant Acinetobacter baumannii clinical isolate 6 at 6.25 to 12.5 microg/ml measured for 1 hr by NPN-dye based assay; settings: dose 6.25-12.5 µg/ml
Acinetobacter baumannii [30] = assay: Synergistic antibacterial activity against carbapenem-resistant Acinetobacter baumannii clinical isolate 6 in presence of CTX by microdilution checkerboard assay; assay type: functional, organism-based
Acinetobacter baumannii [31] = assay: Antibacterial activity against carbapenem-resistant Acinetobacter baumannii clinical isolate 6 assessed as bacterial killing at 3.16 microg/ml measured within 10 mins; assay type: functional, organism-based; settings: dose 3.16 µg/ml

Compound: H-KRIVQRIKDFLR-OH
- Activity (Acinetobacter baumannii [1]): 19.5%
- MIC (Acinetobacter baumannii [2]): 160 mg/L
- MIC (Staphylococcus aureus [3]): > 320 mg/L
- Activity (HaCaT): Non-toxic
- Activity (Acinetobacter baumannii [4]): inactive
- MIC (Acinetobacter baumannii [5]): > 320 mg/L
- MIC (Acinetobacter baumannii [6]): 320 mg/L
- MIC (Acinetobacter baumannii [7]): 160 mg/L
- MIC (Staphylococcus aureus [8]): > 320 mg/L
- MIC (Acinetobacter baumannii [9]): 160 mg/L
- MIC (Acinetobacter baumannii [10]): 160 mg/L
- MIC (Acinetobacter baumannii [11]): 320 mg/L
- pKd (Lipoteichoic acid): 6.62
- MIC (Acinetobacter baumannii [12]): 320 mg/L
- MIC (Acinetobacter baumannii [13]): 160 mg/L
- pKd [14]: 6.77
- MIC (Acinetobacter baumannii [15]): 160 mg/L

Compound: CC[C@H](C)[C@H](NC(=O)[C@H](CCCNC(=N)N)NC(=O)[C@@H](N)CCCCN)C(=O)N[C@H](C(=O)N[C@@H](CCCNC(=N)N)C(=O)N[C@@]1(C)CCC/C=C/CCC[C@@](C)(C(=O)N[C@@H](CC(C)C)C(=O)N[C@@H](CCCNC(=N)N)C(=O)O)NC(=O)[C@H]([C@@H](C)CC)NC(=O)[C@H](CCCCN)NC(=O)[C@H]([C@@H](C)CC)NC1=O)C(C)C (H-KRIVR[S5]IKI[S5]LR-OH; staple (E) 6-10)
- MIC (Acinetobacter baumannii [2]): 10 mg/L (≈ 6.47 µM)
- MIC (Staphylococcus aureus [3]): 80 mg/L (≈ 51.8 µM)
- MIC (Acinetobacter baumannii [5]): 10 mg/L (≈ 6.47 µM)
- MIC (Staphylococcus aureus [8]): 80 mg/L (≈ 51.8 µM)

Compound: CC[C@H](C)[C@@H]1NC(=O)[C@H](CCCCN)NC(=O)[C@H]([C@@H](C)CC)NC(=O)[C@H](CCCNC(=N)N)NC(=O)[C@@](C)(NC(=O)[C@@H](NC(=O)[C@@H](NC(=O)[C@H](CCCNC(=N)N)NC(=O)[C@@H](N)CCCCN)[C@@H](C)CC)C(C)C)CCC/C=C\CCC[C@@](C)(C(=O)O)NC(=O)[C@H](CC(C)C)NC(=O)[C@H](Cc2ccccc2)NC1=O (H-KRIV[S5]RIKIFL[S5]-OH; staple (Z) 5-12)
- MIC (Acinetobacter baumannii [2]): 40 mg/L (≈ 26 µM)
- MIC (Staphylococcus aureus [3]): > 320 mg/L
- MIC (Acinetobacter baumannii [5]): 80 mg/L (≈ 52.1 µM)
- MIC (Staphylococcus aureus [8]): 80 mg/L (≈ 52.1 µM)

Compound: H-KRIVKRIKIFLR-OH
- MIC (Acinetobacter baumannii [2]): 10 mg/L
- MIC (Staphylococcus aureus [3]): 80 mg/L
- MIC (Acinetobacter baumannii [5]): 20 mg/L
- MIC (Staphylococcus aureus [8]): > 320 mg/L

Compound: CC[C@H](C)[C@@H]1NC(=O)[C@H](CCCNC(=N)N)NC(=O)[C@@](C)(N)CCC/C=C\CCC[C@@](C)(C(=O)N[C@H](C(=O)N[C@@H](Cc2ccccc2)C(=O)N[C@@H](CC(C)C)C(=O)N[C@@H](CCCNC(=N)N)C(=O)O)[C@@H](C)CC)NC(=O)[C@H]([C@@H](C)CC)NC(=O)[C@H](CCCNC(=N)N)NC(=O)[C@H](CCCNC(=N)N)NC(=O)[C@H](C(C)C)NC1=O (H-[S5]RIVRRI[S5]IFLR-OH; staple (Z) 1-8)
- MIC (Acinetobacter baumannii [2]): 40 mg/L (≈ 25.1 µM)
- MIC (Staphylococcus aureus [3]): 320 mg/L (≈ 201 µM)
- MIC (Acinetobacter baumannii [5]): 80 mg/L (≈ 50.2 µM)
- MIC (Staphylococcus aureus [8]): 160 mg/L (≈ 100 µM)

Compound: CC[C@H](C)[C@H](NC(=O)[C@H](CCCCN)NC(=O)[C@]1(C)CCC/C=C\CCC[C@](C)(NC(=O)[C@H](CCCNC(=N)N)NC(=O)[C@@H](N)CCCCN)C(=O)N[C@@H](C(C)C)C(=O)N[C@@H](CCCNC(=N)N)C(=O)N[C@@H](CCCNC(=N)N)C(=O)N1)C(=O)N[C@@H](Cc1ccccc1)C(=O)N[C@@H](CC(C)C)C(=O)N[C@@H](CCCNC(=N)N)C(=O)O (H-KR[S5]VRR[S5]KIFLR-OH; staple (Z) 3-7)
- MIC (Acinetobacter baumannii [2]): 40 mg/L (≈ 24.7 µM)
- MIC (Staphylococcus aureus [3]): 160 mg/L (≈ 98.6 µM)
- MIC (Acinetobacter baumannii [5]): 320 mg/L (≈ 197 µM)
- MIC (Staphylococcus aureus [8]): 160 mg/L (≈ 98.6 µM)

Compound: CC[C@H](C)[C@@H]1NC(=O)[C@H](CCCNC(=N)N)NC(=O)[C@@](C)(NC(=O)[C@@H](NC(=O)[C@@H](NC(=O)[C@H](CCCNC(=N)N)NC(=O)[C@@H](N)CCCCN)[C@@H](C)CC)C(C)C)CCC/C=C\CCC[C@@](C)(C(=O)N[C@@H](Cc2ccccc2)C(=O)N[C@@H](CC(C)C)C(=O)N[C@@H](CCCNC(=N)N)C(=O)O)NC(=O)[C@H](CCCCN)NC1=O (H-KRIV[S5]RIK[S5]FLR-OH; staple (Z) 5-9)
- MIC (Acinetobacter baumannii [2]): 40 mg/L (≈ 25.3 µM)
- MIC (Staphylococcus aureus [3]): > 320 mg/L
- MIC (Acinetobacter baumannii [5]): 40 mg/L (≈ 25.3 µM)
- MIC (Staphylococcus aureus [8]): > 320 mg/L

Compound: H-KRIVRRIKIFLR-OH
- Activity [16]: Non-toxic
- survival at 120 h [17]: 30%
- Activity [18]: Non-toxic
- Activity (Cell membrane [19]): Active
- Activity [20]: Non-toxic
- Activity (Acinetobacter baumannii [21]): Active
- MIC (Acinetobacter baumannii [2]): 5 mg/L
- MIC (Staphylococcus aureus [3]): 80 mg/L
- Activity (HaCaT): Non-toxic
- Activity (Acinetobacter baumannii [4]): Active
- MIC (Acinetobacter baumannii [5]): 10 mg/L
- hemolysis [22]: < 1%
- MIC (Acinetobacter baumannii [6]): 5 mg/L
- MIC (Acinetobacter baumannii [7]): 10 mg/L
- MIC (Staphylococcus aureus [8]): 80 mg/L
- MIC (Acinetobacter baumannii [9]): 2.5 mg/L
- survival at 1.25 mg/kg (Acinetobacter baumannii [23]): 40%
- Activity [24]: Non-toxic
- Activity (Acinetobacter baumannii [25]): Active
- Activity [26]: Non-toxic
- MIC (Acinetobacter baumannii [10]): 10 mg/L
- Activity [27]: Non-toxic
- Activity (Acinetobacter baumannii [28]): Active
- metabolised at 20 min (proteinase K): 89.4%
- Activity (Escherichia coli): Active
- Activity (Pseudomonas aeruginosa): Active
- MIC (Acinetobacter baumannii [11]): 10 mg/L
- pKd (Lipoteichoic acid): 7.32
- Activity (Cell membrane [29]): Active
- MIC (Acinetobacter baumannii [12]): 20 mg/L
- MIC (Acinetobacter baumannii [13]): 5 mg/L
- pKd [14]: 8.15
- Activity (Acinetobacter baumannii [30]): Active
- MIC (Acinetobacter baumannii [15]): 10 mg/L
- Activity (Acinetobacter baumannii [31]): Active
